Measurements from patent US7683034B2, “Use of enzyme inhibitors of aminopeptidase N and/or dipeptidylpeptidase IV” (IMTM GmbH, priority 2002, dated 2010).

Test system: immortalized human sebaceous cell line SZ95
Experiment: Inhibition of DNA synthesis (3[H]-thymidine incorporation) of SZ95 sebaceous cells
Assay type: cell-based
Details: 48 h incubation with inhibitor, then 6 h 3[H]-methyl-thymidine incorporation; dose-dependent (FIG. 3)
Description: SZ95 cells were 48 h incubated with the above-mentioned inhibitors and subsequently the DNA synthesis was determined by the measurement of the ^ 3[H]-Thymidine incorporation as described in Reinhold et al. (Reinhold, D. et al.: Inhibitors of dipeptidyl peptidase IV induce secretion of transforming growth factor β1 in PWM-stimulated PBMNC and T-cells; Immunology, 1997, 91; 354-360).
The cells were 48 h incubated with inhibitors in the above-mentioned concentrations. Subsequently ^3[H]-Methyl-thymidin was added to the culture medium. After 6 further hours the amount of ^3[H]-Thymidine incorporated in the DNA was measured.

| SMILES | DNA synthesis of the immortalized human sebaceous cell line SZ95 |
| --- | --- |
| N[C@@H](CCCCNC(=O)OCc1ccc([N+](=O)[O-])cc1)C(=O)N1CCSC1 [Lys[Z(NO2)]-thiazolidide] | inhibited |
| CCCCC[C@H](CC(=O)NO)C(=O)N[C@H](C(=O)N1CCC[C@H]1CO)C(C)C [actinonin] | inhibited |
